The values that follow come from ChEMBL document CHEMBL5247580, “Discovery of novel AdipoRon analogues as potent anti-inflammatory agents against nonalcoholic steatohepatitis” (Eur J Med Chem, 2022).

For test [1], the system named is RAW264.7. In words: Anti-inflammatory activity in LPS induced mouse RAW264.7 cells assessed as inhibition of IL-1beta mRNA expression incubated for 12 hrs followed by LPS stimulation and measured after 6 hrs by RT-PCR method. The class given is functional, cell-based.
For test [2], the system named is RAW264.7. In words: Cytotoxicity against mouse RAW264.7 cells at 50 uM by MTT assay relative to control. Type of test: functional.
For test [3], the system named is RAW264.7. As to the kind of experiment: Anti-inflammatory activity in LPS induced mouse RAW264.7 cells assessed as inhibition of IL-1beta mRNA expression at 10 uM incubated for 12 hrs followed by LPS stimulation and measured after 6 hrs by RT-PCR method. The class given is functional, cell-based. The conditions noted are these: time 18.0 hrs.
In test [4] the test system is Mus musculus. In words: Antiinflammatory activity in HFCFD-induced NASH po dosed C57BL/6JNifdc mouse model assessed as downregulation of CCL2 expression administered once daily for 4 weeks. Particulars: dose 25-50 mg/kg. The class given is functional, organism-based.
In test [5] the test system is Mus musculus. In words: Antiinflammatory activity in HFCFD-induced NASH po dosed C57BL/6JNifdc mouse model assessed as downregulation of IL-12beta expression administered once daily for 4 weeks. The class given is functional, organism-based. The conditions noted are these: dose 25-50 mg/kg.
Test [6] deals with Mus musculus. In words: Reduction in hepatic steatosis in HFCFD-induced NASH C57BL/6JNifdc mouse model assessed as decrease in fatty acids at 25 to 50 mg/kg, po administered once daily for 4 weeks by Oil red-O staining based assay. Type of test: functional, organism-based. The conditions noted are these: dose 25-50 mg/kg.
Test [7] has as its target T1, 5'-AMP-activated protein kinase (Mus musculus) (UniProt Q5EG47+Q8BRK8+Q6PAM0+O54950+Q91WG5+Q9R078+Q8BGM7). As to the kind of experiment: Agonist activity at AMPK in mouse C2C12 cells assessed as increase in PGC-1alpha mRNA level. Type of test: cell-based. Particulars: filed as agonist, dose <= 30.0 µM.
In test [8] the test system is Mus musculus. As to the kind of experiment: Anti-fibrosis effect in HFCFD-induced NASH C57BL/6JNifdc mouse model assessed as downregulation of alpha-SMA mRNA level at 25 to 50 mg/kg, po administered once daily for 4 weeks. Type of test: functional, organism-based. Particulars: dose 25-50 mg/kg.
Test [9] has as its system RAW264.7. In words: Antiinflammatory activity in mouse RAW264.7 cells assessed as downregulation of NF-kappaB p65 phosphorylation level at upto 10 uM by Western blot analysis. Type of test: functional, cell-based.
Test [10] deals with Mus musculus. In words: Anti-fibrosis effect in HFCFD-induced NASH C57BL/6JNifdc mouse model assessed as downregulation of Col1a1 mRNA level at 25 to 50 mg/kg, po administered once daily for 4 weeks. The class given is functional, organism-based. Particulars: dose 25-50 mg/kg.
Test [11] has as its system Mus musculus. In words: Reduction in hepatic steatosis in HFCFD-induced NASH C57BL/6JNifdc mouse model assessed as reduction in liver/body weight ratio at 50 mg/kg, po administered once daily for 4 weeks. The class given is functional, organism-based.
In test [12] the test system is Mus musculus. As to the kind of experiment: Antiinflammatory activity in HFCFD-induced NASH C57BL/6JNifdc mouse model assessed as decrease in AST serum level at 50 mg/kg, po administered once daily for 4 weeks by automated biochemical analyzer. The class given is functional, organism-based.
Test [13] addresses T1, 5'-AMP-activated protein kinase (Mus musculus). As to the kind of experiment: Agonist activity at AMPK in mouse RAW264.7 cells assessed as stimulation of AMPK phosphorylation at upto 10 uM. The class given is cell-based. The conditions noted are these: filed as agonist.
Test [14] has as its system Mus musculus. In words: Anti-fibrosis effect in HFCFD-induced NASH C57BL/6JNifdc mouse model assessed as downregulation of Col3a1 mRNA level at 25 to 50 mg/kg, po administered once daily for 4 weeks. Type of test: functional, organism-based. The conditions noted are these: dose 25-50 mg/kg.
In test [15] the test system is Mus musculus. As to the kind of experiment: Reduction in hepatic steatosis in HFCFD-induced NASH C57BL/6JNifdc mouse model assessed as reduction in liver weight at 50 mg/kg, po administered once daily for 4 weeks. Type of test: functional, organism-based.
In test [16] the test system is Mus musculus. As to the kind of experiment: Antiinflammatory activity in HFCFD-induced NASH C57BL/6JNifdc mouse model assessed as change inflammatory infiltration at 50 mg/kg, po administered once daily for 4 weeks by H and E staining based analysis. Type of test: functional, organism-based.
The subject of test [17] is Mus musculus. As to the kind of experiment: Anti-fibrosis effect in HFCFD-induced NASH C57BL/6JNifdc mouse model assessed as decrease in collagen accumulation at 25 to 50 mg/kg, po administered once daily for 4 weeks by Sirius red staining based analysis. The class given is functional, organism-based. Particulars: dose 25-50 mg/kg.
The test system of test [18] is Mus musculus. In words: Antiinflammatory activity in HFCFD-induced NASH po dosed C57BL/6JNifdc mouse model assessed as downregulation of CCL4 expression administered once daily for 4 weeks. Type of test: functional, organism-based. The conditions noted are these: dose 25-50 mg/kg.
Test [19] has as its system Mus musculus. In words: Reduction in hepatic steatosis in HFCFD-induced NASH C57BL/6JNifdc mouse model assessed as decrease in neutral fat at 25 to 50 mg/kg, po administered once daily for 4 weeks by Oil red-O staining based assay. Type of test: functional, organism-based. Particulars: dose 25-50 mg/kg.
In test [20] the test system is Mus musculus. In words: Antiinflammatory activity in HFCFD-induced NASH po dosed C57BL/6JNifdc mouse model assessed as downregulation of CCL5 expression administered once daily for 4 weeks. Type of test: functional, organism-based. The conditions noted are these: dose 25-50 mg/kg.
For test [21], the system named is Mus musculus. As to the kind of experiment: Reduction in hepatic steatosis in HFCFD-induced NASH C57BL/6JNifdc mouse model assessed as decrease in triglycerides at 25 to 50 mg/kg, po administered once daily for 4 weeks by Oil red-O staining based assay. The class given is functional, organism-based. The conditions noted are these: dose 25-50 mg/kg.
The test system of test [22] is Mus musculus. In words: Antiinflammatory activity in HFCFD-induced NASH C57BL/6JNifdc mouse model assessed as decrease in ALT serum level at 50 mg/kg, po administered once daily for 4 weeks by automated biochemical analyzer. The class given is functional, organism-based.
Test [23] deals with Mus musculus. As to the kind of experiment: Reduction in hepatic steatosis in HFCFD-induced NASH po dosed C57BL/6JNifdc mouse model assessed as decrease in lipid droplets administered once daily for 4 weeks by H and E staining based analysis. Type of test: functional, organism-based. Particulars: dose 25-50 mg/kg.
In test [24] the test system is Mus musculus. As to the kind of experiment: Antiinflammatory activity in HFCFD-induced NASH po dosed C57BL/6JNifdc mouse model assessed as downregulation of TNFalpha expression administered once daily for 4 weeks. The class given is functional, organism-based. Particulars: dose 25-50 mg/kg.
The target of test [25] is T1, 5'-AMP-activated protein kinase (Mus musculus). As to the kind of experiment: Agonist activity at AMPK in mouse C2C12 cells assessed as stimulation of AMPK phosphorylation at upto 30 uM. The class given is cell-based. Particulars: filed as agonist.
In test [26] the test system is Mus musculus. As to the kind of experiment: Antiinflammatory activity in HFCFD-induced NASH po dosed C57BL/6JNifdc mouse model assessed as downregulation of IL-1beta expression administered once daily for 4 weeks. Particulars: dose 25-50 mg/kg. Type of test: functional, organism-based.
Test [27] relates to Mus musculus. As to the kind of experiment: Reduction in hepatic steatosis in HFCFD-induced NASH po dosed C57BL/6JNifdc mouse model assessed as decrease in hepatocellular vacuolization administered once daily for 4 weeks by H and E staining based analysis. Type of test: functional, organism-based. Particulars: dose 25-50 mg/kg.
The subject of test [28] is Mus musculus. In words: Antiinflammatory activity in NASH C57BL/6JNifdc po dosed mouse model assessed as decrease in NF-kappaB p65 phosphorylation level administered once daily for 4 weeks by Western blot analysis. The class given is functional, organism-based. Particulars: dose 25-50 mg/kg. In general terms: Immunoblotting shows a protein as a band on a membrane.
Test [29] concerns RAW264.7. In words: Anti-inflammatory activity in LPS induced mouse RAW264.7 cells assessed as inhibition of IL-6 mRNA expression at 10 uM incubated for 12 hrs followed by LPS stimulation and measured after 6 hrs by RT-PCR method. The class given is functional, cell-based. The conditions noted are these: time 18.0 hrs.

Activity calls are given as the source filed them. The rule behind the calls is not given here.

With `COc1ccc(CN2CCC(NC(=O)C(C)(C)Oc3ccc(C(=O)c4ccc(Cl)cc4)cc3)CC2)cc1`, the IC50 (usually the midpoint of a concentration-inhibition curve) in the test on RAW264.7 [1] turned out to be 4.57 µM. The compound further had an Activity in the test on RAW264.7 [2] of 4.08%.

On to `COc1ccc(CN2CCC(NC(=O)C(C)(C)CCCOc3cc(C)ccc3C)CC2)cc1`, for which the IC50 in the test with RAW264.7 [1] was 4.15 µM. The compound further gave an Activity in the test with RAW264.7 [2] of 7.19%.

For `Cc1ccc(C)c(OCCCC(C)(C)C(=O)NC2CCN(Cc3ccc(Cl)cc3)CC2)c1`, in the test with RAW264.7 [1], the half-maximal inhibitory concentration (IC50) is 14.8 µM. For the same compound, in the test on RAW264.7 [2], the Activity is recorded as 68.99%.

With `Cc1ccc(C)c(OCCCC(C)(C)C(=O)NC2CCN(Cc3ccccc3)CC2)c1`, the result in the test on RAW264.7 [3] was Active.

`CC(C)(Oc1ccc(C(=O)c2ccc(Cl)cc2)cc1)C(=O)NC1CCN(Cc2ccc(C(F)(F)F)cc2)CC1`: the Activity entry was “Dose-Dependent Effect” in the test on Mus musculus [4]; “Dose-Dependent Effect” in the test on Mus musculus [5]; 98.46% in the test with RAW264.7 [2]; “Dose-Dependent Effect” in [7]; “Dose-Dependent Effect” in the test with Mus musculus [18]; “Dose-Dependent Effect” with Mus musculus [20]. Also, the Activity result in the test on Mus musculus [23], with Mus musculus [24], in the test on Mus musculus [26], in the test with Mus musculus [27] and with Mus musculus [28] was “Dose-Dependent Effect” throughout. In addition, in the test with RAW264.7 [1], the IC50 was 4.4 µM. Also, the outcome in the test on Mus musculus [6], in the test with Mus musculus [8], with RAW264.7 [9], in the test with Mus musculus [10], in the test on Mus musculus [11] and in the test with Mus musculus [12] was Active. Also, the outcome (in test [13]; in the test on Mus musculus [14]; with Mus musculus [15]; in the test on Mus musculus [16]; with Mus musculus [17]; with Mus musculus [19]) was Active. Also, the outcome (in the test on Mus musculus [21]; in the test on Mus musculus [22]; in test [25]) was Active.

On to `CC(C)(Oc1ccc(C(=O)c2ccc(Cl)cc2)cc1)C(=O)NC1CCN(Cc2ccc(OC(F)(F)F)cc2)CC1`, for which the IC50 with RAW264.7 [1] turned out to be 9.76 µM. Moreover, the Activity in the test with RAW264.7 [2] is 88.34%.

`Cc1ccc(C)c(OCCCC(C)(C)C(=O)NC2CCN(Cc3ccc(F)cc3)CC2)c1`: the IC50 in the test with RAW264.7 [1] amounted to 4.56 µM. This compound yielded an Activity in the test with RAW264.7 [2] of 78.02%.

As for `CC(C)(Oc1ccc(Cl)cc1)C(=O)NC1CCN(Cc2ccccc2)CC1`, the result with RAW264.7 [3] was inactive.

With `Cc1ccc(CN2CCC(NC(=O)C(C)(C)CCCOc3cc(C)ccc3C)CC2)cc1`, the IC50 in the test with RAW264.7 [1] is 6.54 µM. The compound also had an Activity with RAW264.7 [2] of 42.67%.

For the compound `CC(C)(Oc1ccc(C(=O)c2ccc(Cl)cc2)cc1)C(=O)NC1CCN(Cc2ccccc2)CC1`, in the test with RAW264.7 [3], the result was Active.

`COc1ccc(CN2CCC(NC(=O)COc3ccc(C(=O)c4ccc(Cl)cc4)cc3)CC2)cc1`: the IC50 with RAW264.7 [1] was 10.2 µM. Also, in the test on RAW264.7 [2], the Activity is reported as 3.33%.

Turning to `Cc1ccc(CN2CCC(NC(=O)C(C)(C)Oc3ccc(C(=O)c4ccc(Cl)cc4)cc3)CC2)cc1`, in the test on RAW264.7 [1], the IC50 was found to be 8.56 µM. Besides, the Activity with RAW264.7 [2] worked out at 4.64%.

As to `Cc1ccc(C)c(OCCCC(C)(C)C(=O)NC2CCN(Cc3ccc(C(F)(F)F)cc3)CC2)c1`, the IC50 in the test with RAW264.7 [1] came out at 5.17 µM. Moreover, the Activity in the test with RAW264.7 [2] is 93.12%.

As for `O=C(COc1ccc(C(=O)c2ccccc2)cc1)NC1CCN(Cc2ccccc2)CC1`, in the test on RAW264.7 [1], the concentration for half-maximal inhibition (IC50) came out at 15 µM. Besides, in the test on RAW264.7 [2], the Activity is 96.32%. Also, the result in the test with RAW264.7 [29] and in the test with RAW264.7 [3] was Active.
